Key:
[1] = target: T1, CaSPhmGluR5(27-22) (Homo sapiens, UniProt P41594); assay: oocyte assay for PLC-coupled receptors (voltage clamp, Cl- current); assay type: cell-based; conditions: 100 uM L-glutamate; Xenopus oocytes; FIG. 8
T1 construct: CaR signal peptide (first 27 amino acids of CaR) (N); expressed in transfected cells; host or cells: Xenopus laevis oocytes injected with in vitro transcribed RNA

[2] = target: T2, CaSPhmGluR2(27-19) (Homo sapiens, UniProt Q14416); assay: oocyte assay for Gαi-coupled receptors (GIRK1/GIRK4 co-injection, voltage clamp); assay type: cell-based; conditions: 100 uM L-glutamate; Xenopus oocytes; FIG. 6
T2 construct: CaR signal peptide (first 27 amino acids of CaR) (N); expressed in transfected cells; host or cells: Xenopus laevis oocytes injected with RNA (with GIRK1 and GIRK4 RNA)

[3] = target: T3, CaSPhmGluR7(27-45) (Homo sapiens, UniProt Q14831); assay: as above; assay type: cell-based; conditions: 100 uM L-glutamate; Xenopus oocytes; FIG. 4
T3 construct: human CaR signal peptide (first 27 amino acids of CaR), replacing mGluR7 residues 1-44 (N); expressed in transfected cells; host or cells: Xenopus laevis oocytes injected with in vitro transcribed RNA (co-injected with GIRK1 and GIRK4 RNA)
Procedure: (§1) The ability of each Gαi-coupled mGlu or mGluR-CaR chimeric receptors to function was determined in Xenopus oocytes, with co-injection of the G-protein inward rectifying potassium channel subunits, GIRK 1 and GIRK4 (Kubo et al 1993 Nature 364: 802). Individual oocytes were injected with a mixture containing 5 ng receptor, 1.5 ng GIRK1 and 1.5 ng GIRK4. […] Further details can be found in Saugstad, et al., J. Neurosci. 1996 16:5979-5985. Application of glutamate evoked inward potassium currents in oocytes expressing both the chimeric receptors and the potassium channels, but not in oocytes expressing only the receptor or only the channel subunits.

[4] = target: T4, CaSPhmGluR6(27-35) (Homo sapiens, UniProt O15303, Q59P); assay: as above; assay type: cell-based; conditions: 100 uM L-glutamate; Xenopus oocytes; FIG. 7
T4 construct: CaR signal peptide (first 27 amino acids of CaR) (N); expressed in transfected cells; host or cells: Xenopus laevis oocytes injected with RNA
T4 sequence (O15303 with tags, fused parts or gaps Q59P): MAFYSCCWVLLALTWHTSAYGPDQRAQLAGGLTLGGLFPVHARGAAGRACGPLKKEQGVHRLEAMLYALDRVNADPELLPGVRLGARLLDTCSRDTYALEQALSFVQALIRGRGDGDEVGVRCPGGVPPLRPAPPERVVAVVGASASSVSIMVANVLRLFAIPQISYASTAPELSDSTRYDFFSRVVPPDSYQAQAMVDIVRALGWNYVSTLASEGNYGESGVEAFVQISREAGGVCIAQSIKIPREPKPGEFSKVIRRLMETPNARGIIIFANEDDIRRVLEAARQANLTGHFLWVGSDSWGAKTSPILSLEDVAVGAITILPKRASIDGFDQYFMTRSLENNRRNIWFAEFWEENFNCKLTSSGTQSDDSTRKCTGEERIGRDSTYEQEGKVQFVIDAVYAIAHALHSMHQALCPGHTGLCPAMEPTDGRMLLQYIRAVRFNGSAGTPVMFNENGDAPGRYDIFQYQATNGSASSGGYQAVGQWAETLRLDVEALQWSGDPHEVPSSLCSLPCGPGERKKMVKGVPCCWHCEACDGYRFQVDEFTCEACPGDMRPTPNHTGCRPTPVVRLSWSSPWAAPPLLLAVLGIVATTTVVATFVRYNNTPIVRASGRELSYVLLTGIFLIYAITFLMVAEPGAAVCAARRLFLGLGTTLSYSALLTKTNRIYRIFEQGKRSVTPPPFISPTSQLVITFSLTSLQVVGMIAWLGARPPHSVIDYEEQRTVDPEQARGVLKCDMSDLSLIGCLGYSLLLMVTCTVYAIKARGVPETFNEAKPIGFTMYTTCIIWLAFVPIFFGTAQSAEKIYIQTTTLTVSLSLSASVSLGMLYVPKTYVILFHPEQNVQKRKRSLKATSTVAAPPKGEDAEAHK
Procedure: as §1

[5] = target: T5, CaSPhmGluR3(27-33) (Homo sapiens, UniProt Q14832); assay: as above; assay type: cell-based; conditions: 100 uM L-glutamate; Xenopus oocytes; FIG. 5
T5 construct: CaR signal peptide (first 27 amino acids of CaR) (N); expressed in transfected cells; host or cells: Xenopus laevis oocytes injected with RNA (with GIRK1 and GIRK4 RNA)
Procedure: as §1

[6] = target: T6, human CaR (Homo sapiens, UniProt P41180, R990G); assay: PLC-coupled oocyte assay; assay type: cell-based; conditions: Xenopus oocytes; FIG. 10B
T6 construct: expressed in transfected cells; host or cells: Xenopus laevis oocytes injected with human CaR RNA (plasmid phPCaR4.0)
T6 sequence (P41180 20-1078 R990G): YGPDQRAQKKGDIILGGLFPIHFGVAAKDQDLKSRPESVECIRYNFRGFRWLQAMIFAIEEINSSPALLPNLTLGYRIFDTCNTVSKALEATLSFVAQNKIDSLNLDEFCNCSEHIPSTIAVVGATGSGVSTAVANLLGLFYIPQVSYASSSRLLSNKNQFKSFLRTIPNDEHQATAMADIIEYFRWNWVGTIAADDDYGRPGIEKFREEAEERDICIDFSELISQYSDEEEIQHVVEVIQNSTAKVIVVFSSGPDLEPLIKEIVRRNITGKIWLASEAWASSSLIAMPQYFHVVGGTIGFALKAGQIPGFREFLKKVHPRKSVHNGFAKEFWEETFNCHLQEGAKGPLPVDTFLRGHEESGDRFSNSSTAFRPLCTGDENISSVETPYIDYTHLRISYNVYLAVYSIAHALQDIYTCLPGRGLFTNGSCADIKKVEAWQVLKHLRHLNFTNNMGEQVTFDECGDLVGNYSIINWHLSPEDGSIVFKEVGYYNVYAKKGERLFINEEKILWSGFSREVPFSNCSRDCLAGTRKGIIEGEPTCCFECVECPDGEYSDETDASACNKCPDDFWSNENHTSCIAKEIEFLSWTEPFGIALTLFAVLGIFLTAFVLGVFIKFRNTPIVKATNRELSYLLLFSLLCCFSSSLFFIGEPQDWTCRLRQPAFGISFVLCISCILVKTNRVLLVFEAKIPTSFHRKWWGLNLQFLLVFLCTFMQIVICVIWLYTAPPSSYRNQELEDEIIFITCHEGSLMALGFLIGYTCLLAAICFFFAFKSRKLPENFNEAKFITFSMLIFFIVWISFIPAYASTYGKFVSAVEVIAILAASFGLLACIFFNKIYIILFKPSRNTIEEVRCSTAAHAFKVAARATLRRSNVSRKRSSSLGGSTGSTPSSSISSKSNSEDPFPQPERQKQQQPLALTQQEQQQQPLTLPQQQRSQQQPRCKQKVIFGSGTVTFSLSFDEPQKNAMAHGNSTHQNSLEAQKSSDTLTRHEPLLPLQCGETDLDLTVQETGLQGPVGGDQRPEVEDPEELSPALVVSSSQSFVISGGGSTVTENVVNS

[7] = target: pmGluR1/CaR chimera (Rattus norvegicus, UniProt P23385); conditions: Xenopus oocytes; compared with rat mGluR1; FIG. 9
Sequence of pmGluR1/CaR chimera (P23385 with tags, fused parts or gaps): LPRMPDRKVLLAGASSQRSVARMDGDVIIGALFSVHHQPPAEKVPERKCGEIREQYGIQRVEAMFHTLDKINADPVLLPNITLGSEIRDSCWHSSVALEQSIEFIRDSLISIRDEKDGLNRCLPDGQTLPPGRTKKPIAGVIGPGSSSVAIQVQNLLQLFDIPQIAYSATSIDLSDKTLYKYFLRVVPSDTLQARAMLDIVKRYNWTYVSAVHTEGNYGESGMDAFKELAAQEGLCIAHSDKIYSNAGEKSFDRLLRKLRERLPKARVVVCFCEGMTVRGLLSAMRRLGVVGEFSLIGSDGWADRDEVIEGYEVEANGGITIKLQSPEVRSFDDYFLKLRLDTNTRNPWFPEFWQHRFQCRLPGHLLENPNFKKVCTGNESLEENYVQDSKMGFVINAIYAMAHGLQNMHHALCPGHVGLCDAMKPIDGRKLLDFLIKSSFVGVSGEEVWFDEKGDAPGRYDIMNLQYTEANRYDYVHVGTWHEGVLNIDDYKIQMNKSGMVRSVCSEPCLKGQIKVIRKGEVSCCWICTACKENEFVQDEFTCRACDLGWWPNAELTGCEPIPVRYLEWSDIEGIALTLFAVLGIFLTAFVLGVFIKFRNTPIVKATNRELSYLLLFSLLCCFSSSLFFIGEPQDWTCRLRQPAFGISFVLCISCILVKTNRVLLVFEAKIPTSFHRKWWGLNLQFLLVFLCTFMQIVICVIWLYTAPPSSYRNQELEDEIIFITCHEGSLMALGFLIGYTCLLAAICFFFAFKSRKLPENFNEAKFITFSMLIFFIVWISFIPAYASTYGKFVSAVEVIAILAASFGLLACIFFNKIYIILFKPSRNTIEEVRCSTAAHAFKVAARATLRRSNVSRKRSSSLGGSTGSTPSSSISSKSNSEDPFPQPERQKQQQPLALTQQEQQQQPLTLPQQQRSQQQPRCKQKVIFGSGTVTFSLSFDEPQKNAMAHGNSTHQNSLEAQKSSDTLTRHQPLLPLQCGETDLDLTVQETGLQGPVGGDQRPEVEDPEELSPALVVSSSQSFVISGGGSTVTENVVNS

[8] = target: rat mGluR1 (Rattus norvegicus, UniProt P23385); conditions: Xenopus oocytes; FIG. 9 and FIG. 10A
Sequence of rat mGluR1 (P23385 19-1199): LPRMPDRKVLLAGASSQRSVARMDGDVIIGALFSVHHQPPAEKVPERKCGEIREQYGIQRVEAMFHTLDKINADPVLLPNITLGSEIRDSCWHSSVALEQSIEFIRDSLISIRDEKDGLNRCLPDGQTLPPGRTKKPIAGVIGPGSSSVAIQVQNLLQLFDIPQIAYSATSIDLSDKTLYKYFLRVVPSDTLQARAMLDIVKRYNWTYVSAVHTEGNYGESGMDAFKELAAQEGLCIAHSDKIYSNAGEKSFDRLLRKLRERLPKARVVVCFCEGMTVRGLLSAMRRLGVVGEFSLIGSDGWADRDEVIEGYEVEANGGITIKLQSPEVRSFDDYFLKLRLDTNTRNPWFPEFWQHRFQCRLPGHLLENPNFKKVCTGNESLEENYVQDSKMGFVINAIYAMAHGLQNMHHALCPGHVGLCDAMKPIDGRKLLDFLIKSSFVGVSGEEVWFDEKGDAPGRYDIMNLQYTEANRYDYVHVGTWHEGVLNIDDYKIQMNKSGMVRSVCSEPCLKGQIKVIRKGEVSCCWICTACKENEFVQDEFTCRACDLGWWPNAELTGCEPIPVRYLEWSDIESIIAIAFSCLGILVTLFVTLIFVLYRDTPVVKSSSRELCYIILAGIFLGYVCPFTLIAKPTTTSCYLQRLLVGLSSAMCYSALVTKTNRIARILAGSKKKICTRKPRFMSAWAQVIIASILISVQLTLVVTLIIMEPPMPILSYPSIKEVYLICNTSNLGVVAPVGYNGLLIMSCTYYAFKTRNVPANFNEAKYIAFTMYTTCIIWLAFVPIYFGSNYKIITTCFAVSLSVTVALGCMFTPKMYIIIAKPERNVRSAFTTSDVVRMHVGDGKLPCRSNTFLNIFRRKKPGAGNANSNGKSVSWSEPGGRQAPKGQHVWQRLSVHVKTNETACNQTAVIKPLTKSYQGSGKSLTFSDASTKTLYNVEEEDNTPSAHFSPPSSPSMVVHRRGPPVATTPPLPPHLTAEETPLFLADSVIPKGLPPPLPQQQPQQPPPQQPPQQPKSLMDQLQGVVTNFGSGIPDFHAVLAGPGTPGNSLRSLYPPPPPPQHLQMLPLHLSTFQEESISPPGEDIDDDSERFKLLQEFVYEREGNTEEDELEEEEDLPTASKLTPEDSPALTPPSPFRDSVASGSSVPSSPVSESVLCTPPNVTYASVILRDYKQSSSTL

T1 sequence (P41594 with tags, fused parts or gaps): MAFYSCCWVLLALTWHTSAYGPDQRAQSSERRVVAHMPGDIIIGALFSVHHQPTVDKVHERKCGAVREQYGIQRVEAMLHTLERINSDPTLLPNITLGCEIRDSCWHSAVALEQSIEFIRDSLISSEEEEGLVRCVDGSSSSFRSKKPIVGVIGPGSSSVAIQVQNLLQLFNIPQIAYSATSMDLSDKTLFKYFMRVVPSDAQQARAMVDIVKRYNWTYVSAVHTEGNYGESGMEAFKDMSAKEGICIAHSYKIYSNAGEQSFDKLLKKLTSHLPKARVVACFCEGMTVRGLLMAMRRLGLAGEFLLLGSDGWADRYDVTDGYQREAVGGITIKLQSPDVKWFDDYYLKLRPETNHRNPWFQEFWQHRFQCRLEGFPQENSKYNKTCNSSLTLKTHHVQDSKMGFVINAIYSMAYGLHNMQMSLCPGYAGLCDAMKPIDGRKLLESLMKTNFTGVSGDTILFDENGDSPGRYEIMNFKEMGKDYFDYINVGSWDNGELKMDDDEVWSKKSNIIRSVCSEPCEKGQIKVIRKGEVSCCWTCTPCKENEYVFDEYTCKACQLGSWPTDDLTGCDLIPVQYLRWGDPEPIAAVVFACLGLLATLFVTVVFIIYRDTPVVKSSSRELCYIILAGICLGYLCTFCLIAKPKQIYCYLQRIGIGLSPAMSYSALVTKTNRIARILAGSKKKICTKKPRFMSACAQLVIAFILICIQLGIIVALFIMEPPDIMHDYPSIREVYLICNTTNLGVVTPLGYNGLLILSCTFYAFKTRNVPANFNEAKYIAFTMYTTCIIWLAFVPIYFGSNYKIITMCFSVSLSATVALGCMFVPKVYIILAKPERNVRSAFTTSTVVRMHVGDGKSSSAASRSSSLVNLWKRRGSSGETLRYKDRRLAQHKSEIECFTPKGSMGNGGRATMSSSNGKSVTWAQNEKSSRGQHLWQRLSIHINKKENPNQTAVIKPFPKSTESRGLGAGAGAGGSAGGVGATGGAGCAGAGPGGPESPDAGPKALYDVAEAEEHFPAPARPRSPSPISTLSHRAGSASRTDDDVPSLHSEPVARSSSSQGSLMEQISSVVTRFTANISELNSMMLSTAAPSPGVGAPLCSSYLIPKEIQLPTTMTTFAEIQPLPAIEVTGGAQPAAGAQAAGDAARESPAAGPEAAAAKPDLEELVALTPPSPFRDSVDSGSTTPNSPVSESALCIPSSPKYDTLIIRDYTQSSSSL

| SMILES | activation of the chimeric receptor [1] | activation of the receptor [2] | activation of the chimeric receptor [3] | activation of the chimeric receptor [4] | activation of the chimeric receptor [5] | Cl- current in oocytes injected with human CaR RNA [6] | receptor response (Cl- currents on release of intracellular Ca2+) [7] | receptor response (Cl- currents on release of intracellular Ca2+) [8] |
| --- | --- | --- | --- | --- | --- | --- | --- | --- |
| N[C@@H](CCC(=O)O)C(=O)O [L-glutamate] | Activation of the chimeric receptor | Activation of the receptor | robust activation | Activation of the chimeric receptor | activation of the chimeric receptor was seen | elicits oscillatory increases in Cl— current | – | – |
| N[C@@H](Cn1oc(=O)[nH]c1=O)C(=O)O [quisqualate] | – | – | – | – | – | – | respond comparably | respond comparably |

— patent US20050186658A1, “Chimeric metabotropic glutamate receptors and uses thereof” (NPS Pharmaceuticals, Inc., priority 2003, published 2005)
